Tested on: HR-MDS, sAML and normal bone marrow progenitors
Assay: SL/M2 stromal co-culture colony replating assay (cell self-renewal assay)
Assay type: cell-based, human
Conditions: 1 nM and 10 nM; sAML and HR-MDS progenitors more than normal bone marrow progenitors
Experimental: Compound 1 at the indicated concentrations was added at the initiation of co-culture, with DMSO as a vehicle control. Colonies were scored to determine the effect of Compound 1 on cell survival (FIG. 36A) and self-renewal (FIG. 36B). ***, p<0.001, AML vs normal bone marrow controls treated with 1 nM of compound 1 (one-way ANOVA). **, p=0.01, AML vs normal bone marrow controls treated with 10 nM of Compound 1 (one-way ANOVA). Error bars represent mean values SD.
Methods. Mouse stromal cells SL/M2 stably expressing human interleukin-3 (IL-3), granulocyte colony stimulating factor (G-CSF) and stem cell factor (SCF) were cultured to confluency, followed by gamma-irradiation. Human CD34+ bone marrow cells isolated from 3 high-risk MDS patients (HR-MDS), 3 secondary AML patients arising from MDS (sAML) and 5 age-matched healthy donors were then cultured with inactivated SL/M2 cells for a week. Next, human progenitor cells were quantified by FACS and cells were plated in methylcellulose for colony forming assay (cell survival assay). After two weeks, 20-25 colonies were picked from each condition, resuspended and replated in fresh methylcellulose for 2nd round of colony forming assay (cell self-renewal assay).

With `O=C1CCC(N2Cc3cc(CNC(=O)C(F)(F)c4ccc(Cl)cc4)ccc3C2=O)C(=O)N1` (stereo not shown) [Compound 1, 2-(4-chlorophenyl)-N-((2-(2,6-dioxopiperidin-3-yl)-1-oxoisoindolin-5-yl)methyl)-2,2-difluoroacetamide] the “colony replating (self-renewal)” value was “significantly reduced the self-renewal”.
